Measurements taken from ChEMBL document CHEMBL1150365, “Improved synthesis of antibacterial 3-substituted 6-anilinouracils” (Bioorg Med Chem Lett, 2008).
≈ marks a conversion by molar mass, not a printed value. Calls of active or inactive are those of the source. The calls are words filed in the database; no cut-off is given here.

Assays:
[1] = Inhibition of Staphylococcus aureus DNA polymerase 3C
[2] = system: Staphylococcus aureus; experiment: Antibacterial activity against Staphylococcus aureus 133 by broth microdilution method; type: functional
[3] = system: Streptococcus pneumoniae; experiment: Antibacterial activity against Streptococcus pneumoniae 1707/4 in presence of bovine serum by broth microdilution method; type: functional
[4] = system: Enterococcus faecalis; experiment: Antibacterial activity against Enterococcus faecalis ICB 27159 in presence of bovine serum by broth microdilution method; type: functional
[5] = system: Staphylococcus aureus; experiment: Antibacterial activity in Staphylococcus aureus injected CFU mouse at 100 mg/kg, ip after 30 mins; type: functional, organism-based; parameters: dose 100 mg/kg
[6] = Aqueous solubility of the compound; type: physicochemical; conditions: water

Compound | IC50 [1] | MIC [2] | MIC [3] | MIC [4] | solubility [6] | Activity [5]
COC(=O)c1ccc(Cn2c(=O)cc(Nc3ccc4c(c3)CCC4)[nH]c2=O)o1 | 2000 nM | 32 µg/mL (≈ 83.9 µM) | 16 µg/mL | 32 µg/mL | – | –
O=C(Cn1c(=O)cc(Nc2ccc3c(c2)CCC3)[nH]c1=O)c1ccc(Br)cc1 | > 13000 nM | > 256 µg/mL | > 256 µg/mL | > 256 µg/mL | – | –
CCOC(=O)Cn1c(=O)cc(Nc2ccc3c(c2)CCC3)[nH]c1=O | 1500 nM | 16 µg/mL (≈ 48.6 µM) | 16 µg/mL | 64 µg/mL | – | –

Now those with a lower IC50 [1], led by results:

IC50 [1] | MIC [2] | MIC [3] | MIC [4] | solubility [6] | Compound | Activity [5]
300 nM | 8 µg/mL (≈ 26.4 µM) | 8 µg/mL | 16 µg/mL | – | CCc1cc(Nc2cc(=O)n(CCCO)c(=O)[nH]2)ccc1C | –
1200 nM | 32 µg/mL (≈ 80.9 µM) | 16 µg/mL | 32 µg/mL | – | CN(C)C(=O)c1cc(Cn2c(=O)cc(Nc3ccc4c(c3)CCC4)[nH]c2=O)on1 | –
300 nM | 4 µg/mL (≈ 13.5 µM) | 4 µg/mL | 16 µg/mL | 3.3 µg/mL (≈ 11.1 µM) | O=c1cc(Nc2ccc3c(c2)CCC3)[nH]c(=O)n1CC1CC1 | inactive
